Measured values published in patent publication US20070104649A1, “Optically fluorescent nanoparticles” (priority 2005, published 2007).

Test: UV-Vis absorption spectra of co-aggregate (J-aggregate) formation
Type: physicochemical
Details: non-aggregated dye
Procedure: An aqueous solution of 0.1% (w/v) PEI (1.8, 10, 70, or 750 kDa) is gently stirred, and an aqueous solution of 0.02% (w/v) TITCC is instantly added. This composition is further agitated at about 4° C. for about 30-45 minutes under UV protection. The aggregation progress is monitored by UV-Vis spectra starting from 900 nm down to 600 nm.
This is confirmed by the absence of the starting wavelength of 756 nm of the pure dye, and by the new wavelength maximum at approximately 800 nm from the J-aggregates. In case of 100 and 125% surplus of PEI, the two wavelength maxima indicate that the dye is only partially bound as J-aggregate. Therefore, the wavelength of the pure dye and the wavelength maximum of the J-aggregates can be detected side by side. All measured samples contained the same concentration of dye. The absorption is reduced due to the quenching effects in the J-aggregates. UV-Vis spectra were recorded by UV-2401-PC spectrophotometer (Shimadzu Corp.).
This may be due to a more compact dye-polymer-complex if fewer cationic charges for stabilisation are available. Vice versa, the complexes are less compact having a greater amount of polymer which results in a smaller shift to approximately 795 nm.

absorption wavelength maximum of the pure dye: 756 nm
Compound: CC(C=CC=C1N(CCS(=O)(=O)[O-])c2ccc(S(=O)(=O)[O-])cc2C1(C)C)=CC=CC1=[N+](CCS(=O)(=O)[O-])c2ccc(S(=O)(=O)[O-])cc2C1(C)C.[Na+].[Na+].[Na+] [TITCC, trisodium-3,3-dimethyl-2-{4-methyl-7-[3,3-dimethyl-5-sulfonato-1-(2-sulfonatoethyl)-3H-indolium-2-yl]hepta-2,4,6-trien-1-ylidene}-1-(2-sulfonatoethyl)-2,3-dihydro-1H-indole-5-sulfonate, inner salt]
